{"source": "patent US9326978B2", "about": "“A3 adenosine receptor allosteric modulators” (The United States of America, Represented by the Secretary, …, priority 2006, dated 2016)", "key": {"[1]": {"target": "human A2A AR (Homo sapiens (Human), UniProt P29274)", "sequence (P29274 whole entry)": "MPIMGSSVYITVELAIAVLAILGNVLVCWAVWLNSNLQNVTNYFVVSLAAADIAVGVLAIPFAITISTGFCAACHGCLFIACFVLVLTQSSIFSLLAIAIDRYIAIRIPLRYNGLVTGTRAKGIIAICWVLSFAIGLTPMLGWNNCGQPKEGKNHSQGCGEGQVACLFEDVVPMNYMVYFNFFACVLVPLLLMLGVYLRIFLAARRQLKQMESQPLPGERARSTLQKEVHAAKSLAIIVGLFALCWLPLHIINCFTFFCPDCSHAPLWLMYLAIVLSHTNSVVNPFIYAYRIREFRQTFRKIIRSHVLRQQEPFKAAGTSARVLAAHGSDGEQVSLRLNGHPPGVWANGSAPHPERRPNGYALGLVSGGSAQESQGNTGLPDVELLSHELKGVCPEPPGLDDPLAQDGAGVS", "test": "Binding assay to the human A2A AR ([3H]CGS21680)", "settings": "10 μM", "protocol": "CHO (Chinese hamster ovary) cells expressing the recombinant human ARs (HEK-293 cells were used for the human A2AAR) were cultured in DMEM and F12 (1:1) supplemented with 10% fetal bovine serum, 100 units/ml penicillin, […] streptomycin and 2 μmol/ml glutamine. Cells were harvested by trypsinization. After homogenization and suspension, cells were centrifuged at 500 g for 10 min, and the pellet was re-suspended in 50 mM Tris.HCl buffer (pH 7.4) containing 10 mM MgCl2. The suspension was homogenized with an electric homogenizer for 10 sec, and was then re-centrifuged at 20,000 g for 20 min at 4° C. The resultant pellets were resuspended in buffer in the presence of 3 Units/mL adenosine deaminase, and the suspension was stored at −80° C. until the binding experiments. The protein concentration was measured using the Bradford assay.\nFor binding to the human A1AR, [^3H]R-PIA (2 nM) was incubated with membranes (40 μg/tube) from CHO cells stably expressing the human A1AR at 25° C. for 60 min in 50 mM Tris.HCl buffer (pH 7.4; MgCl2, 10 mM) in a total assay volume of 200 μL. Nonspecific binding was determined using 10 μM of N^6-cyclopentyladenosine. For human A2A AR binding, membranes (20 μg/tube) from HEK-293 cells stably expressing the human A2A AR were incubated with 15 nM [^3H]CGS21680 at 25° C. for 60 min in 200 μL of 50 mM Tris.HCl, pH 7.4, containing 10 mM MgCl2. N-5′-ethyluronamidoadenosine (10 μM) was used to define nonspecific binding. Reaction was terminated by filtration with GF/B filters."}, "[2]": {"tested_on": "adjuvant induced arthritis", "test": "Adjuvant induced arthritis (AIA) model", "type": "in vivo", "settings": "AIA rats, orally twice daily 100 μg/kg from onset of disease; vs control", "protocol": "Adjuvant induced arthritis model (model for rheumatoid arthritis (RA)) was established in rats by immunizing the animals with an emulsion contacting Mycobacterium tuberculosis in Freund's adjuvant (Animal Models for Autoimmune and Inflammatory disease:Adjuvant Arthritis in the Rat. Current Protocols in Immunology, Supplement 19, page 15.4.2.). Treatment with imidazoquinoline derivative 45 was initiated upon onset of disease. The imidazoquinoline derivative 45 was administered orally twice daily at a dose of 100 μg/kg.\nEvaluation of disease development was carried out daily, starting upon onset of disease until the end of the study. Intensity of arthritis was scored by grading each paw from 0-4 on erythema, swelling and deformity of the joint, every day: 0=no erythema or swelling; 1=slight erythema or swelling of one of the toes or fingers; 2=erythema and swelling of more than one toe or finger; 3=erythema and swelling of the ankle or wrist; 4=complete erythema and swelling of toes or fingers and ankles or wrist, and inability to bend the ankle or wrist. All scores of the four legs from each rat are added to give up to a maximum arthritic score of 16."}}, "data": [{"smiles": "Clc1ccc(Nc2nc3ccccc3c3[nH]c(C4CCCCC4)nc23)cc1Cl", "note": "[Compound 45, N-(3,4-Dichloro-phenyl)-2-cyclohexyl-1H-imidazo[4,5-c]quinolin-4-amine]", "values": [{"measurement": "hA2AAR % displ. at 10 μM", "setting": "[1]; [3H]CGS 21680 (15 nM), HEK293 cells, Table 2", "value": "−1", "unit": "%"}, {"measurement": "hA2AAR % displ. at 10 μM", "setting": "[1]; [3H]CGS 21680, Table 3", "value": "<10", "unit": "%"}, {"measurement": "hA2AAR % displ. at 10 μM", "setting": "[1]; [3H]CGS 21680, Table 4", "value": "<10", "unit": "%"}, {"measurement": "clinical score (arthritic score, max 16)", "setting": "[2]", "value": "reduction in clinical score"}]}]}
